Measured values: article PMC11007962, “First-in-human study of GFH018, a small molecule inhibitor of transforming growth factor-β receptor I inhibitor, in patients with advanced solid tumors” (BMC Cancer, 2024)
Read-outs that look alike come from different tables or passages of the source.

System: patients with advanced solid tumors
[1] = 30 mg BID 14d-on/14d-off (N = 7)
[2] = 40 mg BID 14d-on/14d-off (N = 4)
[3] = 50 mg BID 14d-on/14d-off (N = 4)
[4] = 65 mg BID 14d-on/14d-off (N = 6)

Protocol: The study consisted of a dose-escalation part followed by an expansion part. In the dose escalation part, a 3-day pharmacokinetic (PK) lead-in period was conducted for a single dose in the first treatment cycle. Patients received GFH018 once on cycle 1 day 1 (C1D1) and underwent serial PK testing over the first 3 days. On C1D4, patients were administered the corresponding dose of GFH018 BID 14 days on/14 days off. The first cycle was defined as 31 days, including 3-day PK leading-in period with GFH018 single dosing and then 14d-on/14d-off dosing schedule. The subsequent cycles were 28 days. The starting dose of GFH018 was 5 mg, with eight planned dose levels up to 85 mg (5, 10, 20, 30, 40, 50, 65, and 85 mg). A modified 3+3 design was used to determine the maximum tolerance dose (MTD) and RDE, guided by safety/tolerability and PK data. Dose-limiting toxicities (DLTs) were evaluated during the first cycle at each dose level. The safety of 85 mg BID, 7 d-on/7 d-off, was explored after confirming the safety of 14 d-on/14 d-off. The DLTs were defined as hematological toxicities, including G4 neutropenia lasting for more than 5 days, G3 febrile neutropenia, G4 anemia, G4 thrombocytopenia, or G3 thrombocytopenia accompanied by bleeding, and ≥ G3 nonhematological toxicity (except for diarrhea, nausea, vomiting, and rash recovering ≤ G2 after supportive treatment within 3 days). The DLTs for cardiac toxicities included ≥ G2 cardiac valve abnormalities, ≥ G2 left ventricular ejection fraction (LVEF) decrease, any cardiovascular impairment shown in imaging, and abnormal highly sensitive troponin (hs-Tn) increased to ≥ twice the baseline in two consecutive tests with an interval ≥ 3 days. In the expansion part, patients were orally administered GFH018 RDE twice daily to further evaluate the safety of RDE and other dose regimens. […] The treatment cycle lasted 28 days.
All enrolled patients were monitored regularly after GFH018 administration. Safety assessments included adverse events (AEs), serious AEs (SAEs), laboratory assessments, vital signs, physical examinations, electrocardiography and echocardiography. AEs were graded according to the NCI Common Terminology Criteria for Adverse Events (NCI-CTCAE) v5.0. All AEs were followed up until they were stable or had recovered to baseline. Adverse events of special interest (AESIs) were predefined as echocardiographic abnormalities such as aggravated stenosis or regurgitation of the heart valves, clinically significant decreases in LVEF, brain natriuretic peptide (BNP) or N-terminal pro-brain natriuretic peptide (NT-proBNP) increases, and hs-Tn increases judged by investigators.
For the safety and efficacy analyses, data from patients who received GFH018 at the same dose in the dose-escalation and expansion cohorts were pooled. The demographic and baseline characteristics were summarized using descriptive methods. Safety and efficacy data were summarized for all patients who received at least one dose of GFH018. The ORR and DCR were summarized by cohort and overall. When the sample size of the analyzed group was ten or more, the Kaplan–Meier method was used to estimate the median PFS and TTP. In this study, treatment-emergent AEs (TEAEs) were defined as AEs that occurred on or after the first dosing date of GFH018 and no later than 30 days after the last dose of GFH018. The incidence and severity of AEs were descriptively summarized according to dose level. The PK parameters of GFH018 were calculated using noncompartmental analysis methods. All plasma PK data were summarized by cohort and visit day or time using descriptive statistics.

Cc1cccc(-c2nn3c(c2-c2ccc4ncnn4c2/C=C/C(N)=O)CCC3)n1 [GFH018]
1 (25.0%) n (%): TEAE: ALP increased [2] | TEAE: Anemia [2] | TEAE: Asthenia [2] | TEAE: LDH increased [2] | TEAE: Platelet count decreased [2] | TEAE: Sinus tachycardia [2] | TRAE: ALP increased [2] | TRAE: LDH increased [2] | TEAE: ALP increased [3] | TEAE: ALT increased [3] | TEAE: AST increased [3] | TEAE: Abdominal distention [3] | TEAE: Decreased appetite [3] | TEAE: GGT increased [3] | TEAE: Sinus tachycardia [3] | TEAE: Urine protein present [3] | TRAE: ALP increased [3] | TRAE: ALT increased [3] | TRAE: AST increased [3] | TRAE: GGT increased [3] | TRAE: Protein urine present [3]
3 (50.0%) n (%): TEAE: Anemia [4] | At least one TRAE (85 mg BID 7d-on/7d-off (N = 6))
1 (16.7) n (%): Treatment-emergent Proteinuria (grouped PTs), G1 [4] | Treatment-emergent Proteinuria (grouped PTs), G2 [4]
1 (14.3%) n (%): TRAE: LDH increased [1] | TRAE: Lymphocyte count decreased [1]
2 (33.3%) n (%): TEAE: AST increased [4] | TEAE: Sinus tachycardia [4] | TEAE: White blood cell count decreased [4] | TRAE: AST increased [4] | TRAE: Anemia [4]
2 (33.3) n (%): Treatment-emergent Proteinuria (grouped PTs: proteinuria and urine protein present), any grade [4]
3 (42.9) n (%): Treatment-emergent Proteinuria (grouped PTs), G1 [1]
1 (14.3) n (%): Treatment-emergent Proteinuria (grouped PTs), G2 [1]
3 (75.0%) n (%): TEAE: Anemia [3]
4 (57.1) n (%): Treatment-emergent Proteinuria (grouped PTs: proteinuria and urine protein present), any grade [1]
4 (100%) n (%): At least one TEAE [2] | At least one TRAE [2] | At least one TEAE [3]
1 (16.7%) n (%): TEAE: Abdominal pain [4] | TEAE: Blood bilirubin increased [4] | TEAE: Constipation [4] | TEAE: Decreased appetite [4] | TEAE: GGT increased [4] | TEAE: Platelet count decreased [4] | TEAE: Proteinuria [4] | TEAE: Urine protein present [4] | TEAE: White blood cells urine positive [4] | TRAE: Proteinuria [4] | TEAE: ALP increased (85 mg BID 7d-on/7d-off (N = 6))
0 n (%): TEAE: Urine protein present [1] | TEAE: White blood cell count decreased [1] | TEAE: White blood cells urine positive [1] | TRAE: ALP increased [1] | TRAE: Anemia [1] | TRAE: GGT increased [1] | TRAE: Protein urine present [1] | Treatment-emergent Proteinuria (grouped PTs), G3 [1] | TEAE: ALT increased [2] | TEAE: AST increased [2] | TEAE: Abdominal distention [2] | TEAE: Abdominal pain [2] | TEAE: Bilirubin conjugated increased [2] | TEAE: Blood albumin decreased [2] | TEAE: Blood bilirubin increased [2] | TEAE: C-reactive protein increased [2] | TEAE: Constipation [2] | TEAE: Decreased appetite [2] | TEAE: GGT increased [2] | TEAE: Hypoalbuminemia [2] | TEAE: Lymphocyte count decreased [2] | TEAE: Proteinuria [2] | TEAE: Urine protein present [2] | TEAE: White blood cell count decreased [2] | TEAE: White blood cells urine positive [2] | TRAE: ALT increased [2] | TRAE: AST increased [2] | TRAE: Anemia [2] | TRAE: GGT increased [2] | TRAE: Lymphocyte count decreased [2] | TRAE: Protein urine present [2] | TRAE: Proteinuria [2] | Treatment-emergent Proteinuria (grouped PTs), G1 [2] | Treatment-emergent Proteinuria (grouped PTs), G2 [2] | Treatment-emergent Proteinuria (grouped PTs), G3 [2] | Treatment-emergent Proteinuria (grouped PTs: proteinuria and urine protein present), any grade [2] | TEAE: Abdominal pain [3] | TEAE: Asthenia [3] | TEAE: Bilirubin conjugated increased [3] | TEAE: Blood albumin decreased [3] | TEAE: Blood bilirubin increased [3] | TEAE: C-reactive protein increased [3] | TEAE: Constipation [3] | TEAE: Hypoalbuminemia [3] | TEAE: LDH increased [3] | TEAE: Lymphocyte count decreased [3] | TEAE: Platelet count decreased [3] | TEAE: Proteinuria [3] | TEAE: White blood cell count decreased [3] | TEAE: White blood cells urine positive [3] | TRAE: Anemia [3] | TRAE: LDH increased [3] | TRAE: Lymphocyte count decreased [3] | TRAE: Proteinuria [3] | Treatment-emergent Proteinuria (grouped PTs), G2 [3] | Treatment-emergent Proteinuria (grouped PTs), G3 [3] | TEAE: ALP increased [4] | TEAE: ALT increased [4] | TEAE: Abdominal distention [4] | TEAE: Asthenia [4] | TEAE: Bilirubin conjugated increased [4] | TEAE: Blood albumin decreased [4] | TEAE: C-reactive protein increased [4] | TEAE: Hypoalbuminemia [4] | TEAE: LDH increased [4] | TEAE: Lymphocyte count decreased [4] | TRAE: ALP increased [4] | TRAE: ALT increased [4] | TRAE: GGT increased [4] | TRAE: LDH increased [4] | TRAE: Lymphocyte count decreased [4] | TRAE: Protein urine present [4] | Treatment-emergent Proteinuria (grouped PTs), G3 [4] | TEAE: ALT increased (85 mg BID 7d-on/7d-off (N = 6))
5 (83.3%) n (%): At least one TEAE [4] | At least one TRAE [4] | At least one TEAE (85 mg BID 7d-on/7d-off (N = 6)) | At least one TEAE (Table S3) (85 mg BID 7d-on/7d-off (N = 6))
not significantly different: safety profile of 7 d-on/7 d-off versus 14 d-on/14 d-off regimen (85 mg BID)
2 (50.0%) n (%): At least one TRAE [3]
3 (42.9%) n (%): TRAE: Proteinuria [1]
2 (28.6%) n (%): TRAE: ALT increased [1] | TRAE: AST increased [1]
1 (25.0) n (%): Treatment-emergent Proteinuria (grouped PTs), G1 [3] | Treatment-emergent Proteinuria (grouped PTs: proteinuria and urine protein present), any grade [3]
